From the SangsterLogP compilation

assay: method code SF, from Hansch, C. & Leo, A. (1987). Log P database [Dataset]. Pomona College Medicinal Chemistry Project.; conditions: not given

SMILES | logP
CC(=O)Nc1ccc(S(=O)(=O)F)cc1 | 2.17
CC(C)C(=O)Nc1ccc(Cl)c(Cl)c1 | 3.72
O=C(Nc1ccc(Cl)c(Cl)c1)C1CCCCC1 | 4.72
Cc1ccc2cccnc2c1 | 2.47
Cc1cccc(NC(=O)c2ccccc2)c1 | 2.75
COC(=O)C[C@](O)(CCC(C)(C)O)C(=O)O[C@@H]1C(OC)=C[C@]23CCCN2CCc2cc4c(cc2[C@H]13)OCO4 | 0.65
CC1=Nc2cc(C)ccc2S(=O)(=O)N1 | 0.74
c1cscn1 | 0.44
COc1ccccc1OC | 1.79
CN(C)C(=O)Oc1ccccc1Br | 2.17
COc1cc(Cl)cc(Cl)c1 | 3.74
CCCCC1OC(=O)c2cc(Br)ccc21 (stereo not given) | 4.24
O=S1(=O)NC(CCl)=Nc2cc(Cl)ccc21 | 1.68
OC(CF)CF | -0.36
c1ccc2c(c1)OCCO2 | 2.01
ICCCc1ccccc1 | 3.9
Cc1ccco1 | 1.85
NC(=O)c1ccc(Cl)cc1 | 1.53
CCNC(=O)CBr | 0.34
CCCCSc1ccccc1OC(=O)NC | 2.98
O=c1[nH]nc(Sc2ccccc2)[nH]1 | 1.46
Ic1cn[nH]c1 | 1.7
O=c1cc[nH]cn1 | -1.38
CC(=O)Nc1ccc(OC(C)=O)cc1 | 0.8
CN(C)CCC1CN(C)C(=S)c2cccnc2O1 (stereo not given) | 1.08

SMILES | logP
O=C1C2(Cl)C3(Cl)C4(Cl)C(Cl)(Cl)C5(Cl)C3(Cl)C1(Cl)C5(Cl)C24Cl (stereo not given) | 5.41
O=CN(Cc1ccccc1)c1ccccc1 | 2.62
CCCCCc1cn[nH]c1 | 2.96
CNC(=O)Oc1cc(Cl)ccc1Cl | 2.44
CN(C(=O)CCSC#N)c1ccc(S(=O)(=O)N(C)C)cc1 | 0.84
CN(C)C(=O)Cc1ccsc1 | 0.65
O=C(Nc1ccc(Cl)c(Cl)c1)C(F)F | 3.18
OCCCCCl | 0.85
CCNc1nc(NC(C)C)nc(SC)n1 | 2.98
COc1ccc(C(N)=O)cc1/N=N/N(C)C | 0.44
CC(=O)n1ccnc1 | -0.34
CCCN(CCC)/N=C/c1c2c(O)c3c(O)c(C)c4c(c3c1O)C(=O)C(C)(O/C=C\C(OC)C(C)C(OC(C)=O)C(C)C(O)C(C)C(O)C(C)/C=C\C=C(C)C(=O)N2)O4 (stereo not given) | 3.83
CC(C)Oc1ccccc1OC(=O)N(C)C | 2.06
CCCCN(CCCC)C(=O)COc1ccccc1 | 3.23
OC[C@@H](O)[C@@H](O)CO | -2.29
Cc1csc(C=Cc2ccc([N+](=O)[O-])o2)n1 | 1.53
CSc1ncnc2c1ncn2[C@@H]1O[C@H](CO)[C@@H](O)[C@@H]1O | 0.09
O=c1[nH]c2ccccc2o1 | 1.16
CCOC(=O)CCc1ccccc1 | 2.73
CN(C)C(=O)Nc1ccc(Br)cc1 | 2.19
CN(C)/N=N/c1cccc(Cl)c1 | 3.44
CN(C)c1nc2ccccc2o1 | 2.1
N#CCC(N)=C(C#N)C#N | -0.13
COc1ccc2[nH]c(C(O)C(O)c3nc4cc(OC)ccc4[nH]3)nc2c1 (stereo not given) | 1.05
O=C1CC(=O)c2ccccc21 | 0.61

SMILES | logP
CCOC(=O)NC | 0.34
FC(F)(F)c1cccc2cccnc12 | 2.5
O=[N+]([O-])c1ccc2[nH]c(C(O)C(O)c3nc4cc([N+](=O)[O-])ccc4[nH]3)nc2c1 (stereo not given) | 1.45
CCc1ccc(NC(C)=O)cc1 | 2.11
Cc1ccoc1CN(C)C | 1.63
Cc1c(-c2ccccc2)oc2ccccc2c1=O | 3.92
COC(=O)CNC(=O)c1ccc([N+](=O)[O-])cc1 | 0.98
FC(F)F | 0.64
CN(C)CCCN1c2ccccc2Sc2ccc(S(C)(=O)=O)cc21 | 3.5
CCOC(=O)CC(=O)C=Cc1cccc(C)c1 | 2.8
CCOP(=S)(OCC)SCSCC | 3.24
c1nc[nH]n1 | -0.58
C(=N\N1CCCCC1)/c1ccccc1 | 3.04
Cc1ccc2[nH]c(CCCCc3nc4cc(C)ccc4[nH]3)nc2c1 | 1.64
O=C1C[C@@H]2OCC=C3CN4CC[C@]56c7ccccc7N1[C@H]5[C@H]2[C@H]3C[C@H]46 | 1.93
CC(=O)OC1CCCCC1NC(=O)N(CCCl)N=O (stereo not given) | 1.93
CCOC(CP(=O)(OCC)OCC)OCC | 0.69
O=C(O)c1cccs1 | 1.57
COc1ccccc1C=CC(=O)ON=Cc1ccc(OCCO)c(OC)c1 | 3.56
CCCCNC(=O)n1c(NC(=O)OC)nc2ccccc21 | 2.42
CNC(=S)NCc1ccccc1 | 1.35
CC1OC(=O)c2ccccc21 (stereo not given) | 1.41
CCCCCN(CCCCC)/N=C/c1c2c(O)c3c(O)c(C)c4c(c3c1O)C(=O)C(C)(O/C=C\C(OC)C(C)C(OC(C)=O)C(C)C(O)C(C)C(O)C(C)/C=C\C=C(C)C(=O)N2)O4 (stereo not given) | 3.47
CC(=O)C(=Cc1cccc(Cl)c1)C(C)=O | 2.26
COc1ccc(C=C(C(C)=O)C(C)=O)c(OC)c1 | 1.88

SMILES | logP
NS(=O)(=O)Nc1ccccc1 | 0.4
CCC(=Cc1ccccc1)[N+](=O)[O-] | 2.86
C#CCCC(=O)N(C)c1ccc(S(=O)(=O)N(C)C)cc1 | 0.88
O=C(O)c1ccncc1 | -0.57
Cc1nnc(SCc2ccccc2)s1 | 2.35
Brc1cccs1 | 2.75
OC12CC3CC(CC(C3)C1)C2 | 2.14
O=C(O)CS | 0.09
NC(=S)NN=Cc1ccccc1 | 1.86
CCN(CC)C(C)CN1c2ccccc2Sc2ccccc21 (stereo not given) | 4.77
N#CN=[N+]([O-])c1ccccc1 | 1.87
O=C(NC(CO)C(O)c1ccc(NC(=O)C2CC2)cc1)C(Cl)Cl (stereo not given) | 0.75
CC1CCCC1 | 3.37
NC(=O)c1cccc(Br)c1 | 1.65
CC(=O)Oc1ccccc1Cl | 2.18
NC(=O)CI | -0.19
C=CC=O | -0.01
COc1cccc(NC(C)=O)c1 | 1.28
CN(C)c1cccc2ccccc12 | 3.46
O=[N+]([O-])c1ccc(O[C@@H]2O[C@H](CO)[C@@H](O[C@H]3O[C@H](CO)[C@@H](O)[C@H](O)[C@H]3O)[C@H](O)[C@H]2O)cc1 | -1.39
CCOP(=S)(Oc1ccc(C#N)cc1)c1ccccc1 (stereo not given) | 4.29
Nc1nc2ccccc2c(=O)[nH]1 | 0.6
O=C(Nc1ccc(Cl)c(Cl)c1)C1CC1 | 3.83
CCCC(=O)Nc1ccccc1 | 2.05
COc1ccc([N+]([O-])=NC#N)cc1 | 2.15

SMILES | logP
O=c1cncc[nH]1 | -1.49
O=Cc1ccc2c(c1)OCO2 | 1.05
O=c1n[n+]([O-])ccn1Cc1ccccc1 | 0.19
CC(C)CCO[N+](=O)[O-] | 2.84
CC(=O)Nc1cccc(C(C)=O)c1 | 1.1
Oc1ccccc1-c1ccccc1 | 3.09
CC(=O)NCc1ccccc1 | 0.95
CCOP(=S)(OCC)SCS(=O)C(C)(C)C (stereo not given) | 2.21
CC(=O)OC[C@@H](OC(C)=O)[C@@H](OC(C)=O)[C@H](OC(C)=O)[C@H](C=O)OC(C)=O | 0.63
O=C(CNC(=O)c1ccccc1)Oc1cccc(C(F)(F)F)c1 | 3.3
CN(C)C(=O)Cc1ccco1 | 0.01
COc1cc(OC)cc(OC(=O)CNC(=O)c2ccccc2)c1 | 2.69
O=C(NC1CC1)c1cc(N2CC2)c([N+](=O)[O-])cc1[N+](=O)[O-] | 0.74
OCCC(F)(F)F | 0.39
c1ccc(N2CCOCC2)cc1 | 1.36
O=C1c2ccccc2C(=O)C1(O)O | 0.67
CC(N)=S | -0.26
O=Cc1cccc(Oc2ccccc2)c1 | 3.38
O=C(Nc1ccccc1)Oc1ccccc1 | 3.3
CCOC(=O)C(=Cc1ccc(OC)cc1)C(=O)OCC | 3.28
O=C(CCl)Nc1ccc(Cl)c(Cl)c1 | 3.29
CCC(C)NC(=O)/C(Cl)=C\c1ccccc1 (stereo not given) | 3.52
Cn1c(=O)ccc2ccccc21 | 1.45
CC(=O)Nc1cccc(C#N)c1 | 1.2
CC1=Nc2cccc(Cl)c2S(=O)(=O)N1 | 0.62

same assay, conditions: pH 1.0

SMILES | logD
CC(=O)c1c(O)oc(=O)c(/C(C)=N/c2ccccc2)c1O | 2.58
O=C(O)COc1ccccc1F | 1.39

same assay, conditions: pH 2.0

SMILES | logD
CCCCc1ccc(C(=O)O)nc1 | 0.68
O=C(O)c1ccc[nH]1 | 0.85

same assay, conditions: pH 3.0

SMILES | logD
Cn1c(SCC2=C(C(=O)O)N3C(=O)C(NC(=O)Cc4cccs4)C3SC2)nnc(O)c1=O (stereo not given) | -0.52
CC(=O)OCC1=C(C(=O)O)N2C(=O)C(NC(=O)C(O)c3ccccc3)C2SC1 (stereo not given) | -0.44

same assay, conditions: pH 4.6

SMILES | logD
CCN(CC)/N=N/c1nc[nH]c1C(N)=O | 0.78

same assay, conditions: pH 7.0

SMILES | logD
CCOc1cccc(NC(C)=O)c1 | 1.82
CN(C)c1ccc([N+](=O)[O-])cc1 | 2.27
CC(=O)c1cccc(C#N)c1 | 1.16
CC(=O)c1cccc(F)c1 | 1.77
CC(=O)c1ccc(C(C)=O)cc1 | 1.34
CC(=O)Oc1ccc(C(C)=O)cc1 | 1.29
CN(C)c1ccc(S(N)(=O)=O)cc1 | 0.76
O=Cc1ccc([N+](=O)[O-])cc1 | 1.56

same assay, conditions: pH 7.3

SMILES | logD
Nc1ncnc2nc(-c3cccc([N+](=O)[O-])c3)[nH]c12 | 1.93

same assay, conditions: pH 7.4

SMILES | logD
Cc1cc(C(=O)NNCc2ccccc2)no1 | 1.49
Cc1c(N(C)C)c(=O)n(C)c(=O)n1-c1ccc(Cl)cc1 | 2.32
Nc1ccc(C(F)(F)F)cc1 | 2.39
CC12CCC(=O)C=C1CCC1C2CCC2(C)C1CCC21CCC(=O)O1 (stereo not given) | 2.75
Cc1c(N2CCCCC2)c(=O)n(-c2ccccc2)c(=O)n1C | 2.76
CN(C)/N=N/c1ccccc1 | 2.59
Cc1c(N2CCOCC2)c(=O)n(C)c(=O)n1C1CCCCC1 | 2.39
NC(=S)N/N=C/c1ccc(O)cn1 | 0.69

same assay, conditions: pH 11.0

SMILES | logD
c1cncc(CCN2CCCC2)c1 | 1.34
c1cncc([C@@H]2CCCN2)c1 | 0.17

same assay, conditions: pH 12.0

SMILES | logD
CCCCCC1CN[C@H](C(=O)NC(C(C)Cl)[C@H]2O[C@H](SC)[C@H](O)[C@@H](O)[C@H]2O)C1 (stereo in doubt) | 2.74

same assay, conditions: pH 13.0

SMILES | logD
CS(=O)(=O)Oc1ccccc1Cc1cnc(N)nc1N | 0.71
CNC1(c2ccccc2Cl)CCCCC1=O (stereo not given) | 2.18
CC1(C)N=C(N)N=C(N)N1c1cccc(C#N)c1 | -0.24
